Source: ChEMBL document CHEMBL1201862, “PubChem BioAssay data set” (2004)
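Dose response: 5 concentrations. Exposure: 48 h. Format: 96-well plates. Endpoint: linear interpolation; highest concentration if not reached. GI50 is the concentration that inhibits growth by half.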 Calls of active or inactive are those of the source. Rule as the data show it: active = GI50 up to about 1.1 µM and inactive = higher.

How the values were obtained:
Assay in all cases: NCI-60 cell line screen, 48 h
HCC 2998 = system: HCC 2998
U-251 = system: U-251
NCI/ADR-RES = system: NCI/ADR-RES
KM12 = system: KM12
SK-MEL-2 = system: SK-MEL-2
RPMI-8226 = system: RPMI-8226
LOX IMVI = system: LOX IMVI
SW-620 = system: SW-620
SF-295 = system: SF-295
MDA-MB-231 = system: MDA-MB-231
SK-MEL-28 = system: SK-MEL-28
HOP-62 = system: HOP-62
HCT-15 = system: HCT-15
NCI-H460 = system: NCI-H460
NCI-H226 = system: NCI-H226
OVCAR-8 = system: OVCAR-8
TK-10 = system: TK-10
HL-60 = system: HL-60
HOP-92 = system: HOP-92
NCI-H522 = system: NCI-H522
IGROV-1 = system: IGROV-1
EKVX = system: EKVX
MOLT-4 = system: MOLT-4
SN12C = system: SN12C
PC-3 = system: PC-3
786-0 = system: 786-0
MDA-MB-435 = system: MDA-MB-435
HCT-116 = system: HCT-116
CCRF-CEM = system: CCRF-CEM
COLO 205 = system: COLO 205
NCI-H23 = system: NCI-H23
K562 = system: K562
M14 = system: M14
SR = system: SR
OVCAR-5 = system: OVCAR-5
CAKI-1 = system: CAKI-1
Malme-3M = system: Malme-3M
SK-MEL-5 = system: SK-MEL-5
ACHN = system: ACHN
BT-549 = system: BT-549
SNB-19 = system: SNB-19
MCF7 = system: MCF7
HT-29 = system: HT-29
OVCAR-4 = system: OVCAR-4
A549 = system: A549
UACC-257 = system: UACC-257
DU-145 = system: DU-145
SF-539 = system: SF-539
OVCAR-3 = system: OVCAR-3
UO-31 = system: UO-31
UACC-62 = system: UACC-62
A498 = system: A498
RXF 393 = system: RXF 393
MDA-N = system: MDA-N
Hs-578T = system: Hs-578T
SK-OV-3 = system: SK-OV-3
T47D = system: T47D
SF-268 = system: SF-268
SNB-75 = system: SNB-75

Measured: GI50

COCCOC(=O)NCn1cc(-c2ccccc2)nn1
inactive: HCC 2998 > 100 µM | U-251 > 100 µM | NCI/ADR-RES > 100 µM | KM12 > 100 µM | SK-MEL-2 > 100 µM | RPMI-8226 > 100 µM | LOX IMVI > 100 µM | SW-620 > 100 µM | SF-295 > 100 µM | MDA-MB-231 > 100 µM | SK-MEL-28 > 100 µM | HOP-62 > 100 µM | NCI-H460 > 100 µM | NCI-H226 13.8 µM | OVCAR-8 > 100 µM | TK-10 > 100 µM | HL-60 > 100 µM | HOP-92 > 100 µM | NCI-H522 > 100 µM | IGROV-1 > 100 µM | EKVX > 100 µM | MOLT-4 > 100 µM | SN12C > 100 µM | PC-3 > 100 µM | 786-0 > 100 µM | MDA-MB-435 > 100 µM | HCT-116 > 100 µM | CCRF-CEM > 100 µM | COLO 205 > 100 µM | NCI-H23 > 100 µM | K562 > 100 µM | M14 > 100 µM | SR > 100 µM | OVCAR-5 > 100 µM | CAKI-1 > 100 µM | Malme-3M > 100 µM | SK-MEL-5 > 100 µM | ACHN > 100 µM | BT-549 > 100 µM | SNB-19 > 100 µM | MCF7 > 100 µM | HT-29 > 100 µM | OVCAR-4 > 100 µM | A549 > 100 µM | UACC-257 > 100 µM | DU-145 > 100 µM | SF-539 > 100 µM
> 100 µM: HCT-15

O=Cc1c2c(cc3c1CC1(C3)Cc3cc4c(c(C=O)c3C1)CCC4)CCC2
inactive: HCC 2998 36.6 µM | U-251 16.3 µM | NCI/ADR-RES 68.2 µM | OVCAR-3 24.1 µM | SK-MEL-2 21.3 µM | RPMI-8226 43.6 µM | LOX IMVI 21.8 µM | SF-295 59.3 µM | MDA-MB-231 23.5 µM | HOP-62 17.1 µM | NCI-H226 29.1 µM | UO-31 2.37 µM | OVCAR-8 47.3 µM | TK-10 32.5 µM | HL-60 27.5 µM | HOP-92 23 µM | NCI-H522 24.9 µM | IGROV-1 17 µM | EKVX 47.3 µM | MOLT-4 11.3 µM | SN12C 65.9 µM | PC-3 30.3 µM | 786-0 > 100 µM | MDA-MB-435 45.6 µM | HCT-116 14.7 µM | CCRF-CEM 17 µM | COLO 205 27.2 µM | UACC-62 22.3 µM | A498 30.7 µM | NCI-H23 45.3 µM | K562 14.4 µM | M14 32.6 µM | RXF 393 41.3 µM | SR 35.1 µM | MDA-N 48.2 µM | OVCAR-5 > 100 µM | Malme-3M 27.5 µM | SK-MEL-5 29.9 µM | ACHN 16.6 µM | Hs-578T 23.1 µM | MCF7 36 µM | HT-29 31.3 µM | SK-OV-3 36.1 µM | T47D 46.1 µM | OVCAR-4 20.9 µM | A549 30.3 µM | UACC-257 34.8 µM | SF-539 37.5 µM
> 100 µM: HCT-15

O=C(/C=C\c1ccccc1)Oc1ccc(/C=C2\CCCCC2=O)cc1
23.3 µM: HCT-15
inactive: HCC 2998 47.3 µM | U-251 30.4 µM | SF-268 25.2 µM | KM12 44 µM | OVCAR-3 72.3 µM | SK-MEL-2 39.2 µM | RPMI-8226 21.5 µM | LOX IMVI 60.4 µM | SW-620 40.3 µM | SF-295 41.2 µM | MDA-MB-231 41.6 µM | SK-MEL-28 2.18 µM | HOP-62 72.1 µM | NCI-H460 73.5 µM | UO-31 64.7 µM | OVCAR-8 37.8 µM | TK-10 15.1 µM | HL-60 14.9 µM | HOP-92 69 µM | NCI-H522 48 µM | IGROV-1 37.8 µM | EKVX 57.1 µM | SN12C 55.3 µM | PC-3 46.9 µM | 786-0 37.4 µM | MDA-MB-435 26.8 µM | SNB-75 > 100 µM | HCT-116 26.1 µM | CCRF-CEM 4.98 µM | COLO 205 19.9 µM | A498 > 100 µM | NCI-H23 45.8 µM | M14 40.6 µM | MDA-N 33.3 µM | OVCAR-5 > 100 µM | CAKI-1 24.3 µM | Malme-3M 38.9 µM | SK-MEL-5 18.9 µM | ACHN 37.2 µM | Hs-578T 61 µM | SNB-19 > 100 µM | MCF7 39.5 µM | HT-29 17.9 µM | T47D 92.5 µM | OVCAR-4 > 100 µM | A549 46.6 µM | UACC-257 16.6 µM | DU-145 > 100 µM | SF-539 28.7 µM
active: MOLT-4 0.955 µM | UACC-62 0.1 µM
